Measurements reported in patent US9968617B2, “Local topical administration formulations containing indoxacarb” (E.I. du Pont de Nemours and Company, priority 2006, dated 2018).
Several values for one entry are separate records, joined by “and”; a condition that tells them apart may be missing. Equal entries are not always repeated.

Assays:
[1] = test system: fleas (Ctenocephalides felis); assay: Dose response study on canines against fleas, Indoxacarb spot-on (Example 1); format: in vivo; settings: for reduction of flea infestation: dogs
Experimental: A non-blinded prospective longitudinal artificial infestation parasite efficacy pen study was conducted with a fully randomized design (ranking and blocking based on breed and pre-treatment flea count). There were 5 treatment groups of 6 dogs each, and an untreated control group.
Thirty-three (33) adult dogs (Labrador Retrievers and Jack Russell Terriers) were inducted, clinically examined, weighed, identified and allocated to study pens on Day −7. Each dog was artificially infested with 100 fleas (Ctenocephalides felis) on Day −5 and again on Day −2. On Day −1 flea thumb counts were performed on all dogs and 30 dogs were selected for inclusion. These dogs were randomly allocated to 5 similar groups of 6 animals on the basis of breed and flea counts, and groups were allocated to study pens. On Day 0, Groups B, C, D and E were treated with a local topical administration formulation containing Indoxacarb (DPX-K128) dissolved in a mixture of Dimethyl Isosorbide (DMI) and Propylene Glycol Monomethyl Ether (90% Dimethyl Isosorbide (DMI) and 10% Propylene Glycol Monomethyl Ether by volume) to form a total concentration of 75, 100, 125 or 150 g/L of Indoxacarb (DPX-K128). The starting material to prepare the formulation was a mixture of DPX-K128-and DPX-KN127 (the R-isomer of Formula 1) and contained 70.43% Indoxacarb (DPX-K128). […] The formulation was administered via spot-on application (i.e. applying in liquid form to less than or equal to 10% of the surface area of the animal) to the dorsal midline at the rate of 0.1 mL/1 kg. Group A remained untreated as controls. Group B was dosed at the rate of 7.5 mg/kg; Group C at the rate of 10.0 mg/kg; Group D at the rate of 12.5 mg/kg; and Group E at the rate of 15.0 mg/kg.
Flea thumb counts were performed at 24 hours. Flea comb counts were performed at 48 hours post-treatment and all dogs then treated with Capstar® oral tablets (Nitenpyram, Novartis Animal Health) to remove all fleas prior to the next infestation. Animals were re-infested with 100 adult fleas at 7, 14, 21 and 28 days post-treatment. At 24 hours after each infestation, flea comb counts were performed followed by Capstar treatment.

fleas = assay: Effect of washing on persistency, flea comb count on dogs (Example 2); format: in vivo, Ctenocephalides felis; settings: for Group Average Count: Day 44; for Flea Count: individual dog, Day 44, infested with 100 fleas Day 43
Experimental: At completion of the study described in Experiment 1 above, a further washing study was conducted using the six dogs in Group E for a further two weeks.
During the two-week period, four of the six dogs from Group E were washed twice weekly in a non-insecticidal hydrobath, while the other two dogs from Group E were not washed and acted as controls. On Day 43 post-treatment, the 6 dogs were infested with 100 fleas and then had their ability to retain a flea infestation assessed on Day 44 by a flea comb count.

Compound: COC(=O)N(C(=O)N1CO[C@@]2(C(=O)OC)Cc3cc(Cl)ccc3C2=N1)c1ccc(OC(F)(F)F)cc1 [Indoxacarb, (S)-methyl 7-chloro-2,5-dihydro-2-[[(methoxycarbonyl)[4-(trifluoromethoxy)phenyl]amino]carbonyl]indeno[1,2-e][1,3,4]oxadiazine-4a(3H)-carboxylate]
- persistent efficacy, reduction ([1]; all four groups (7.5-15.0 mg/kg), from the 48 hour count until 29 days post-treatment): ≥ 99%
- reduction of flea infestation ([1]; spot-on 7.5 mg/kg (Group B), 24 hrs post-treatment): 97.9%
- reduction of flea infestation ([1]; spot-on 7.5 mg/kg (Group B), 48 hrs post-treatment): 99.4%
- reduction of flea infestation ([1]; spot-on 10.0 mg/kg (Group C), 24 hrs post-treatment): 97.9%
- reduction of flea infestation ([1]; spot-on 10.0 mg/kg (Group C), 48 hrs post-treatment): 100%
- reduction of flea infestation ([1]; spot-on 12.5 mg/kg (Group D), 24 hrs post-treatment): 99.0%
- reduction of flea infestation ([1]; spot-on 12.5 mg/kg (Group D), 48 hrs post-treatment): 100%
- reduction of flea infestation ([1]; spot-on 15.0 mg/kg (Group E), 24 hrs post-treatment): 100%
- reduction of flea infestation ([1]; spot-on 15.0 mg/kg (Group E), 48 hrs post-treatment): 99.4%
- persistence after washing (fleas; 44 days, after 4 shampoo hydrobath washes): excellent persistence
- Group Average Count (fleas; Treated Non-Wash): 0
- Group Average Count (fleas; Treated Wash): 3
- Flea Count (fleas; Treated Non-Wash (15.0 mg/kg)): 0
- Flea Count (fleas; Treated Wash (15.0 mg/kg, washed twice weekly for two weeks)): 4 and 5 and 1 and 2
